# Tests used:
# [1] = target: T1, Histone-lysine N-methyltransferase EZH2 (Homo sapiens, UniProt Q15910); experiment: Inhibition of PRC2 EZH2 sub unit (unknown origin) assessed as inhibition of SAM-mediated methyl transfer process at 50 uM preincubated for 15 mins followed by addition of H3K27me and [3H]SAM as substrate measured after 90 mins by radioactive methylation assay
# Target sequence in this assay (Q15910 whole entry, looked up): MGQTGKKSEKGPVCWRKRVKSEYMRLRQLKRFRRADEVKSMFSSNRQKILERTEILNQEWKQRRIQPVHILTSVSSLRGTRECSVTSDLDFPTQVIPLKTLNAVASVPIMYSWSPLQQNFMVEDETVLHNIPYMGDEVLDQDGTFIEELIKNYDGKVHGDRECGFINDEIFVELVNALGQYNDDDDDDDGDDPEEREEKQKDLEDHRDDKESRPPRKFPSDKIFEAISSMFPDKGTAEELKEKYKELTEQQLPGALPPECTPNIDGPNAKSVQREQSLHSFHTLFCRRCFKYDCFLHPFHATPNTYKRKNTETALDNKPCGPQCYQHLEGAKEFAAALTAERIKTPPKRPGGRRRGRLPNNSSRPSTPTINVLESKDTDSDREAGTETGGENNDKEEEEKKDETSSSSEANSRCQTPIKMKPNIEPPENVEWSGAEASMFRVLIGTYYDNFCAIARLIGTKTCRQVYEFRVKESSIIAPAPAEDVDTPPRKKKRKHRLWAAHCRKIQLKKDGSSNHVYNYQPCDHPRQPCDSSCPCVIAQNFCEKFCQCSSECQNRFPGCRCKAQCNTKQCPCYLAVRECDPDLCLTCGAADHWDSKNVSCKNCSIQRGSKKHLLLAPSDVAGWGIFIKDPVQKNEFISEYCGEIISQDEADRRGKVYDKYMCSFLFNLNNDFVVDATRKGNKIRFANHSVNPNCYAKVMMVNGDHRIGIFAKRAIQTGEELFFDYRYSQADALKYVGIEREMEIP
# [2] = Antiproliferative activity against human Toledo cells expressing wild-type EZH2 assessed as growth inhibition measured after 72 hrs by AlamaBlue assay
# DB = experiment: Antiproliferative activity against human DB cells expressing EZH2 mutant assessed as growth inhibition measured after 72 hrs by AlamaBlue assay
# [3] = target: DNA (cytosine-5)-methyltransferase 1 (Homo sapiens) (UniProt P26358); experiment: Inhibition of human DNMT1 assessed as DNA methylation at 50 uM preincubated for 15 mins followed by addition of poly(dI-dC) and [3H]SAM as substrate measured after 2 hrs by radioactive methylation assay
# [4] = target: T1, Histone-lysine N-methyltransferase EZH2; experiment: Inhibition of PRC2 EZH2 sub unit (unknown origin) assessed as inhibition of SAM-mediated methyl transfer process preincubated for 15 mins followed by addition of H3K27me and [3H]SAM as substrate measured after 90 mins by radioactive methylation assay
# Target sequence in this assay (Q15910 whole entry): as the sequence (Q15910 whole entry, looked up) above
# Sequence of DNA (cytosine-5)-methyltransferase 1 (Homo sapiens) (P26358 whole entry): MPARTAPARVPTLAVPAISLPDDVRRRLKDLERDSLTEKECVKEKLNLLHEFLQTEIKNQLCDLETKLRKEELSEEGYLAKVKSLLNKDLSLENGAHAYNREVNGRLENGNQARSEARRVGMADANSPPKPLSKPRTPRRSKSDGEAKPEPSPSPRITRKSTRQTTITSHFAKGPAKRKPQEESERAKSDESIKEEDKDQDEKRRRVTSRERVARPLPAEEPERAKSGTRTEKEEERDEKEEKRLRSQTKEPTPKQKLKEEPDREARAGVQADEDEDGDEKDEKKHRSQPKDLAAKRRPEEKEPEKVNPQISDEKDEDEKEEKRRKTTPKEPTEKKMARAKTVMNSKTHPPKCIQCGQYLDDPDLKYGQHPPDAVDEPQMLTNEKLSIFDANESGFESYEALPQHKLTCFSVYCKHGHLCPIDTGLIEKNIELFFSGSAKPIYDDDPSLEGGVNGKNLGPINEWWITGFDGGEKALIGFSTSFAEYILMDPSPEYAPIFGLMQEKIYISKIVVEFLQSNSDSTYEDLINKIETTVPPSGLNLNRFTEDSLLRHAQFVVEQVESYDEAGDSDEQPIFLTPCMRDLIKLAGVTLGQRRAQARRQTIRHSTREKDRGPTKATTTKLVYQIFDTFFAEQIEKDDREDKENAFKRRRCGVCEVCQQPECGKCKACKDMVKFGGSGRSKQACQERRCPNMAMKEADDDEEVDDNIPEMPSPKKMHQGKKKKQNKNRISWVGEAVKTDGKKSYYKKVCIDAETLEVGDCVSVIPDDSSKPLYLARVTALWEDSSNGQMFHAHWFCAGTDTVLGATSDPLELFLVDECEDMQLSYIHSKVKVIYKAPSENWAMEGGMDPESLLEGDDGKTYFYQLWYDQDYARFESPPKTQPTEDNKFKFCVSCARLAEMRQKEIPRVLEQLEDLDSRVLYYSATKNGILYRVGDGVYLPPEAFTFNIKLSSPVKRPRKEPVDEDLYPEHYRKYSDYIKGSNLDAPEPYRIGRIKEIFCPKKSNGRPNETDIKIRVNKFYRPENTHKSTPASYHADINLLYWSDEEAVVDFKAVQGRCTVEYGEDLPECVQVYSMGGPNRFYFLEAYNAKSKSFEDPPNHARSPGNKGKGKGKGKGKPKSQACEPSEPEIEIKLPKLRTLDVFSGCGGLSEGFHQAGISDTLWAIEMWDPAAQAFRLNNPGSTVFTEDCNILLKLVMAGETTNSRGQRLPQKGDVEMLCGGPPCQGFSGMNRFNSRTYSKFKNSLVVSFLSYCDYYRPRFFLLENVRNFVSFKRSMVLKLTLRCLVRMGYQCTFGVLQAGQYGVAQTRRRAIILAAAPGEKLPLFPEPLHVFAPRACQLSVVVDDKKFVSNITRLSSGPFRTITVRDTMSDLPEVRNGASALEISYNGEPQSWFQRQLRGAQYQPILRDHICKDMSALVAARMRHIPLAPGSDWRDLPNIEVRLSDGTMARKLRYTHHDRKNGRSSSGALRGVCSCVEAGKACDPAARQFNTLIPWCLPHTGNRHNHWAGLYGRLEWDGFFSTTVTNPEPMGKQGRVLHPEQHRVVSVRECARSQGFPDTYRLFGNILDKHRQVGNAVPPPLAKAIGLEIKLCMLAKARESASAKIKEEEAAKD
inhibition [1] [%],SMILES,further results
9,O=C1c2ccccc2NC(c2c[nH]nc2-c2ccccc2)N1O (configuration not stated),
1,CC12CCCc3c(-c4ncn[nH]4)c(-c4ccccc4)c(=O)n(c31)-c1ccccc12 (configuration not stated),
11,O=C1C(Cc2ccccc2)=C(O)c2cccc3c2C1=C(O)CC3,
4,Cc1ccc2c(c1)C1CN(C)CCC1N2C(=O)Cc1ccc(Cl)cc1 (configuration not stated),
-9,COc1ccc2nc(Nc3nc(O)cc(CSc4nnc(C)s4)n3)nc(C)c2c1,
6,NC(=O)c1ccc(N=C2C(=O)Nc3ccc([N+](=O)[O-])cc32)cc1,
6,O=C(NC1CCSC1=O)c1cccc(C(=O)NC2CCSC2=O)c1 (configuration not stated),
5,COc1ccc(-n2c(SCC(=O)c3ccc(Cl)cc3)nc3ccccc3c2=O)cc1,
-2,Cc1cc(O)nc(Nc2ccccc2)n1,
9,COc1ccc(C(=O)C(OC(=O)c2ccc(C)c(NC(C)=O)c2)c2ccccc2)cc1 (configuration not stated),
14,NS(=O)(=O)c1ccc(NC(=O)CN2C(=O)c3cccc4cccc(c34)C2=O)cc1,
4,CC1=CC(C)(C)Oc2c1c(=O)n(-c1ccccc1)c(=S)n2-c1ccc(C)cc1,
17,Cc1cc(C)nc(Nc2n[nH]c(-c3ccccc3Cl)n2)n1,
2,O=C(/C(=C(/[O-])c1ccc(Cl)cc1)[n+]1ccc2ccccc2c1)c1ccccc1,
19,Cc1ccc2c(C)nc(Nc3nc(O)cc(CSc4nnnn4-c4ccccc4)n3)nc2c1,
-1,Cc1ccc(C(=O)CSc2nc3sc4c(c3c(=O)n2-c2ccccc2)CCCC4)s1,
34,O=C1c2ccccc2-c2cccc3c2c1cc1ccccc13,
9,Cn1c(=O)cc2c3c(c(N4CCOCC4)ccc31)C(=O)c1ccccc1-2,

inhibition [1] [%],SMILES,further results
41,N#C/C(=C/c1ccc(-c2ccc(C(N)=O)cc2)o1)c1nc2ccccc2[nH]1,
-2,O=c1c(-c2ccccc2)c(O)c2c(n1-c1ccccc1)CCCC2,
-1,CCOc1ccc(NC(=N)Nc2nc(O)cc(CSc3nnnn3-c3ccccc3)n2)cc1,
0,COc1ccc(CN2CCN(c3cc(C)c(C#N)c4nc5ccccc5n34)CC2)cc1,
7,CCOC(=O)C[n+]1ccc2c([nH]c3ccccc32)c1C,
2,CC(=O)Nc1cc(C(=O)OC(C(=O)c2ccccc2)c2ccccc2)ccc1C (configuration not stated),
3,Cc1ccc2nc(N=C(N)N)nc(C)c2c1,
29,O=C1CC(=C2c3ccccc3-c3ccccc32)C(=O)N1CCN1CCN(c2cccc(Cl)c2)CC1,
25,CCN(CC)c1ccc2cc(-c3nnc(Nc4cc(OC)ccc4OC)o3)c(=O)oc2c1,
72,COc1ccc2nc(Nc3nc(O)cc(CSc4nnnn4-c4ccccc4)n3)nc(C)c2c1,IC50 [2]: 24.1 µM; IC50 (DB): 32.8 µM; inhibition [3]: 0%; IC50 [4]: 22.6 µM
-6,NC(=O)CCN1CCN(CCOC2Cc3cc(Cl)ccc3Sc3ccccc32)CC1 (configuration not stated),
0,Cc1ccc(-n2nc3cc(C)c(NC(=O)NC(=O)Cc4ccccc4)cc3n2)cc1,
-9,OCCNCC(O)Cn1c2ccc(Br)cc2c2cc(Br)ccc21 (configuration not stated),
28,Cc1ccc2nc(Nc3nc(O)cc(CSc4nnnn4-c4ccccc4)n3)nc(C)c2c1,
18,N/N=C1/CCCc2c1[nH]c1ccc(F)cc21,
52,Cn1c(-c2ccc(C=O)o2)nc2c3ccccc3c3ccccc3c21,
-7,CN1c2ccccc2Oc2nnc(N3CCN(C(c4ccccc4)c4ccccc4)CC3)cc21,
-2,O=C(c1cnn2c1NC(c1ccc(Br)cc1)CC2C(F)(F)F)N1CCN2CCCC2C1 (configuration not stated),

SMILES,inhibition [1] [%],further results
Cc1cc(C)nc(NC2=NCCS2)n1,16,
Cc1ccc2c(c1)C1CN(C)CCC1N2C(=O)c1ccc2ccccc2c1 (configuration not stated),0,

# Source: ChEMBL document CHEMBL3822429, “Identification of novel EZH2 inhibitors through pharmacophore-based virtual screening and biological assays” (Bioorg Med Chem Lett, 2016)
